Data on 29 compounds can be found in patent US7659394B2 (Pfizer Inc, priority 2004, dated 2010).

The target of experiment [1] is T1, human seritonin transporter (Homo sapiens, UniProt P31645).
T1 construct: host or cells: HEK-293
Nature of the experiment: hSERT receptor binding ([125I]-RTI-55 radioligand binding). The following applies: membranes of HEK-293 cells transfected with human seritonin transporter, IC50 converted to Ki by Cheng-Prusoff, read-out: SERT (Ki). The text has this:
(§1) The ability of the compounds of this invention to bind to the hNET and serotonin SERT receptor can be determined using conventional radiolig and receptor binding assays. The receptors can be heterologously expressed in cell lines and experiments conducted in membrane preparations from the cell lines using procedures outlined below. IC50 concentrations can be determined by nonlinear regression of concentration-dependent reduction in specific binding. The Cheng-Prussoff equation can be used to convert the IC50 to Ki concentrations.
Cell pastes of HEK-293 cells transfected with the human seritonin transporter were supplied by the Pfizer Ann Arbor Protein Expression and Production group. […] Aliquots of membranes (5 mg/ml protein) were stored in liquid nitrogen until used.
The reaction was incubated by gentle agitation for 90 min at room temperature and was terminated by filtration through Whatman GF/C filter plates using a Brandel 96-well plate harvester. […] Test compounds were run in duplicate, and specific binding was defined as the difference between binding in the presence and absence of […] citalopram.
(§2) Excel and GraphPad Prism software were used for data calculation and analysis. IC50 values were converted to Ki values using the Cheng-Prusoff equation.

The target in experiment [2] is T2, human norepinephrine transporter (Homo sapiens, UniProt P23975).
T2 construct: host or cells: HEK-293
T2 sequence (P23975 whole entry): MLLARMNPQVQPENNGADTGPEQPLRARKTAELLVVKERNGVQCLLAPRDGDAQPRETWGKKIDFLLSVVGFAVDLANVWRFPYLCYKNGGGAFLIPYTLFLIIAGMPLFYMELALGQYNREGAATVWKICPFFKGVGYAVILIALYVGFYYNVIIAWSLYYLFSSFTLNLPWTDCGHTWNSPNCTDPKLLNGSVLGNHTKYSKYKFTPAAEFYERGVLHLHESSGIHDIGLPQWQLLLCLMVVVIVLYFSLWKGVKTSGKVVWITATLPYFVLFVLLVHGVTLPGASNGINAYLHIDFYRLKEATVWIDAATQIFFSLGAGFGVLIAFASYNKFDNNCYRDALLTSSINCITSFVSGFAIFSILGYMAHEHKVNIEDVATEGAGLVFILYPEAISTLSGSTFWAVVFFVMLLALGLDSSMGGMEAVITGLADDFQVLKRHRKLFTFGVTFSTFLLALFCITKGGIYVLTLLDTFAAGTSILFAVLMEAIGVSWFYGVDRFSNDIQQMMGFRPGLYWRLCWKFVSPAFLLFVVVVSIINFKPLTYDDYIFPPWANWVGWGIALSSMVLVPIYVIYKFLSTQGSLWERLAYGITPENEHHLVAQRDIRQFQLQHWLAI
Nature of the experiment: hNET receptor binding ([125I]-RTI-55 radioligand binding). The following applies: membranes of HEK-293 cells transfected with human norepinephrine transporter, IC50 converted to Ki by Cheng-Prusoff, read-out: hNET (Ki).
From the text: as §1
Cell pastes of HEK-293 cells transfected with the human norepinephrine transporter were supplied by the Pfizer Ann Arbor Protein Expression and Production group. […] Aliquots of membranes (5 mg/ml protein) were stored in liquid nitrogen until used.
The reaction was incubated by gentle agitation for 90 min at room temperature and was terminated by filtration through Whatman GF/C filter plates using a Brandel 96-well plate harvester. […] Test compounds were run in duplicate, and specific binding was defined as the difference between binding in the presence and absence of 10 μM desipramine.
as §2

SMILES strings stand for the structures.

One may read the Ki as the dissociation constant of the complex between target and ligand, obtained from inhibition or displacement.

T1 sequence (P31645 whole entry): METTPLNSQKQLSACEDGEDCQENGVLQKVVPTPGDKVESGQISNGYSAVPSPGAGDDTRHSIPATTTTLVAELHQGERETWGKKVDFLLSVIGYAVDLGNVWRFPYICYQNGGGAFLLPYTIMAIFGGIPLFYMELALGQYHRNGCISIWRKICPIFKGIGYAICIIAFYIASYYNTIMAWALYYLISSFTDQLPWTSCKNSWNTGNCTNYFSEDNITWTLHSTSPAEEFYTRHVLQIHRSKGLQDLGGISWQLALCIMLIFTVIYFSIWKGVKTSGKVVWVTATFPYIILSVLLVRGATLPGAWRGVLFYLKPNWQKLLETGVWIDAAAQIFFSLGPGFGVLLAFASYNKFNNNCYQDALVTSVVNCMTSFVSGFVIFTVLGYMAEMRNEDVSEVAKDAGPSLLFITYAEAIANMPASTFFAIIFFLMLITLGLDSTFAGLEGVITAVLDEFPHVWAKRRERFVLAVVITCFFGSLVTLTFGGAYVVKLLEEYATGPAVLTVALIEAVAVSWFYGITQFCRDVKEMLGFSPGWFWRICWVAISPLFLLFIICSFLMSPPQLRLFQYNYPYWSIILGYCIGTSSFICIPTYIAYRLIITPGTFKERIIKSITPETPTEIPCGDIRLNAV

As for `CS(=O)(=O)c1ccccc1O[C@@H](c1ccccc1)[C@@H]1CNCCO1` [Example 54, (S)-2-[(S)-(2-Methanesulfonyl-phenoxy)-phenyl-methyl]-morpholine], the results for the Ki in experiment [1] and in experiment [2] were at least 10000 nM and 1310 nM, respectively.

Regarding `c1ccc([C@H](Oc2ccccc2C2CCCC2)[C@@H]2CNCCO2)cc1` [Example 55, (S)-2-[(S)-(2-Cyclopentyl-phenoxy)-phenyl-methyl]-morpholine], the Ki worked out at 2240 nM in experiment [1] and 12 nM in experiment [2].

Regarding `c1ccc([C@H](Oc2ccccc2C2CCCCC2)[C@@H]2CNCCO2)cc1` [Example 56, (S)-2-[(S)-(2-Cyclohexyl-phenoxy)-phenyl-methyl]-morpholine], the figures for the Ki in experiment [1] and in experiment [2] were 2460 nM and 41 nM, respectively.

As for `FC(F)Oc1ccccc1O[C@@H](c1ccccc1)[C@@H]1CNCCO1` [Example 57, (S)-2-[(S)-(2-Difluoromethoxy-phenoxy)-phenyl-methyl]-morpholine], the figures for the Ki in experiment [1] and in experiment [2] were 94 nM and 24 nM, respectively.

Take `FCCOc1ccccc1O[C@@H](c1ccccc1)[C@@H]1CNCCO1` [Example 58, (S)-2-{(S)-[2-(2-Fluoro-ethoxy)-phenoxy]-phenyl-methyl}-morpholine]: the values for the Ki in experiment [1] and in experiment [2] were 965 nM and 7.4 nM, respectively.

Turning to `CC(C)Cc1cc(F)ccc1O[C@@H](c1ccccc1)[C@@H]1CNCCO1` [Example 59, (S)-2-[(S)-(4-Fluoro-2-isobutyl-phenoxy)-phenyl-methyl]-morpholine], the Ki came to 206 nM in experiment [1] and 61 nM in experiment [2].

Consider `Fc1cccc(Cl)c1O[C@@H](c1ccccc1)[C@@H]1CNCCO1` [Example 60], for which the Ki in experiment [1] was found to be 78 nM; in experiment [2], 14 nM.

Consider `c1ccc([C@H](Oc2ccccc2CC2CC2)[C@@H]2CNCCO2)cc1` [Example 61, (S)-2-[(S)-(2-Cyclopropylmethyl-phenoxy)-phenyl-methyl]-morpholine], for which the Ki in experiment [1] stood at 6600 nM; in experiment [2], 68 nM.

Regarding `Clc1cccc(Cl)c1O[C@@H](c1ccccc1)[C@@H]1CNCCO1` [Example 62, (S)-2-[(S)-(2,6-Dichloro-phenoxy)-phenyl-methyl]-morpholine], the Ki in experiment [1] turned out to be 65 nM; in experiment [2] it was 12 nM.

For the compound `CCOCc1ccccc1O[C@@H](c1ccccc1)[C@@H]1CNCCO1` [Example 63, (S)-2-[(S)-(2-Ethoxymethyl-phenoxy)-phenyl-methyl]-morpholine], the Ki is 2540 nM in experiment [1] and 28 nM in experiment [2].

In the case of `CN(C)c1ccccc1O[C@@H](c1ccccc1)[C@@H]1CNCCO1` [Example 64, (2S,3S)-Dimethyl-[2-(morpholin-2-yl-phenyl-methoxy)-phenyl]-amine], the Ki was at least 10000 nM in experiment [1] and 119 nM in experiment [2].

As for `Fc1ccc(Oc2ncccc2O[C@@H](c2ccccc2)[C@@H]2CNCCO2)cc1` [Example 65, (S)-2-{(S)-[2-(4-Fluoro-phenoxy)-pyridin-3-yloxy]-phenyl-methyl}-morpholine], the Ki was found to be 1200 nM in experiment [1] and 85 nM in experiment [2].

With `Fc1ccc([C@H](Oc2c(F)cccc2F)[C@H]2CNCCO2)cc1` [Example 66, (R)-2-[(S)-(2,6-Difluoro-phenoxy)-(4-fluoro-phenyl)-methyl]-morpholine], the Ki amounted to 176 nM in experiment [1] and 81 nM in experiment [2].

With `Brc1ccccc1O[C@@H](c1ccccc1)[C@H]1CNCCO1` [Example 67, (R)-2-[(S)-(2-Bromo-phenoxy)-phenyl-methyl]-morpholine], the results for the Ki in experiment [1] and in experiment [2] were 93 nM and 21 nM, respectively.

For the compound `Fc1ccc(O[C@@H](c2ccccc2)[C@@H]2CNCCO2)c(F)c1` [Example 68, (S)-2-[(S)-(2,4-Difluoro-phenoxy)-phenyl-methyl]-morpholine], the Ki was determined as 660 nM in experiment [1] and 19 nM in experiment [2].

For the compound `Fc1ccc(O[C@@H](c2ccccc2)[C@@H]2CNCCO2)cc1` [Example 69, (S)-2-[(S)-(4-Fluoro-phenoxy)-phenyl-methyl]-morpholine], the Ki in experiment [1] came to 1890 nM; in experiment [2], 26 nM.

`c1ccc([C@H](Oc2ccccc2C2CC2)[C@H]2CNCCO2)cc1` [Example 71, (R)-2-[(S)-(2-Cyclopropyl-phenoxy)-phenyl-methyl]-morpholine]: the Ki amounted to 65 nM in experiment [1] and 50 nM in experiment [2].

Regarding `Clc1ccccc1-c1ccccc1OCC1CNCCO1` (stereo not shown) [Example 73, 2-(2′-Chloro-biphenyl-2-yloxymethyl)-morpholine], the Ki was at least 10000 nM in experiment [1] and 595 nM in experiment [2].

Consider `COc1ccccc1-c1ccccc1OCC1CNCCO1` (stereo not shown) [Example 74, 2-(2′-Methoxy-biphenyl-2-yloxymethyl)-morpholine], for which the Ki in experiment [1] is at least 10000 nM; in experiment [2], 55 nM.

`Fc1ccc(-c2cc(F)ccc2OCC2CNCCO2)cc1` [Example 76, (R)- and (S)-2-(5,4′-Difluoro-biphenyl-2-yloxymethyl)-morpholine]: the values for the Ki in experiment [1] and in experiment [2] were 349 nM and 64 nM, respectively.

In the case of `c1ccc(Oc2ncccc2OC[C@H]2CNCCO2)cc1` [Example 77, (R)-2-(2-Phenoxy-pyridin-3-yloxymethyl)-morpholine], the inhibition constant Ki in experiment [1] is at least 10000 nM; in experiment [2] it was 3160 nM.

Take `Fc1ccc(Oc2ncccc2OC[C@@H]2CNCCO2)cc1F` [Example 79, (S)-2-[2-(3,4-Difluoro-phenoxy)-pyridin-3-yloxymethyl]-morpholine]: the Ki in experiment [1] worked out at 9650 nM; in experiment [2], 10 nM.

As for `c1ccc(O[C@@H](c2ccccc2)[C@@H]2CNCCO2)cc1` [Example 80, (S)-2-((S)-Phenoxy-phenyl-methyl)-morpholine], the inhibitory constant (Ki) in experiment [1] was found to be 3670 nM; in experiment [2], 7.5 nM.

On to `Fc1ccc(-c2ccccc2O[C@@H](c2ccccc2)[C@@H]2CNCCO2)cc1` [Example 81, (S)-2-[(S)-(4′-Fluoro-biphenyl-2-yloxy)-phenyl-methyl]-morpholine], for which the inhibition constant Ki in experiment [1] came out at 4320 nM; in experiment [2], 9.6 nM.

For the compound `Cc1ccc(-c2ccccc2O[C@@H](c2ccccc2)[C@@H]2CNCCO2)cc1` [Example 82, (S)-2-[(S)-(4′-Methyl-biphenyl-2-yloxy)-phenyl-methyl]-morpholine], the figures for the Ki in experiment [1] and in experiment [2] were 2610 nM and 11 nM, respectively.

`c1ccc(COc2ccccc2O[C@@H](c2ccccc2)[C@@H]2CNCCO2)cc1` [Example 83, (S)-2-[(S)-(2-Benzyloxy-phenoxy)-phenyl-methyl]-morpholine]: the results for the Ki in experiment [1] and in experiment [2] were 3120 nM and 3.9 nM, respectively.

Turning to `Fc1ccccc1O[C@@H](c1ccccc1)[C@@H]1CNCCO1` [Example 84, (S)-2-[(S)-(2-Fluoro-phenoxy)-phenyl-methyl]-morpholine], the inhibition constant (Ki) amounted to 4860 nM in experiment [1] and 7.3 nM in experiment [2].

Turning to `OCc1ccccc1O[C@@H](c1ccccc1)[C@@H]1CNCCO1` [Example 85, (2S,3S)-[2-(Morpholin-2-yl-phenyl-methoxy)-phenyl]-methanol], the figures for the Ki in experiment [1] and in experiment [2] were 869 nM and 37 nM, respectively.

As to `Fc1ccccc1-c1ccccc1O[C@@H](c1ccccc1)[C@@H]1CNCCO1` [Example 86, (S)-2-[(S)-(2′-Fluoro-biphenyl-2-yloxy)-phenyl-methyl]-morpholine], the Ki in experiment [1] turned out to be 8090 nM; in experiment [2], 14 nM.
